Source: patent US20110207741A1, “Activation of the Renin-Angiotensin System (RAS) and Sudden Cardiac Death” (THE BOARD OF TRUSTEES OF THE UNIVERSITY OF ILLINOIS, priority 2010, published 2011)
Values joined by “and” are separate entries in the source; they are usually repeats but may differ in a detail not shown here. Equal values may be shown once.

Assays:
ACE8/8 mice [1] = test: Kaplan-Meier survival analysis of ACE8/8 mice (sudden cardiac death); type: in vivo, mouse; conditions: 1.5 mg/kg intraperitoneal twice weekly, 30 days of treatment and observation, untreated ACE8/8 10.2±1.5 days
Description: Previously, a transgenic mouse model of RAS activation was developed by overexpressing ACE restricted to the heart (ACE8/8 mice) via replacement of the somatic ACE promoter with the cardiac-specific α-myosin heavy chain promoter (9). These mice (ACE8/8) are not hypertensive, have structurally normal hearts with a normal left ventricular ejection fraction (LVEF), and have no ventricular fibrosis.
(§1) The animal experiments were conducted according to the National Institutes of Health (NIH) Guide for the Care and Use of Experimental Animals and were approved by the University of Illinois Institutional Animal Care and Use Committee. Mice of both sexes were treated with 1.5-mg/kg PP1 (Enzo Life Sciences, Plymouth Meeting, Pa.), a specific inhibitor of c-Src tyrosine kinase, twice weekly for 4 consecutive weeks by intraperitoneal injection (21-23). PP3 (Enzo Life Sciences) was administered intraperitoneally at the same dose (1.5 mg/kg twice weekly for 4 consecutive weeks). The treatment of all animals was initiated when the mice were 30 days old.
The values are presented as the mean±the SEM. […] The survival data were analyzed with the Kaplan-Meier method, and the value was calculated with the log-rank test. The correlation was assessed with the Pearson correlation coefficient method.

wild-type mice = test: Treatment of wild-type mice with PP1 (deaths, adverse reactions); type: in vivo, mouse
Description: as §1

ACE8/8 mice [2] = test: Electrophysiology study: VT inducibility by burst pacing; type: in vivo, mouse; conditions: treated ACE8/8 mice, untreated ACE8/8 86.9%, wild-type 3.3%
Description: as §1
The mice were anesthetized with an intraperitoneal injection of ketamine (100 mg/kg) and xylazine (5 mg/kg). After cutdown, a 1.1-F catheter with 0.5-mm interelectrode spacing (EPR 800, Millar Instruments, Houston, Tex.) was placed into the right jugular vein and was advanced into the right ventricle. A constant current stimulator (A320, World Precision Instruments, Sarasota, Fla.) connected to a laptop computer was used for cardiac stimulation. During the experiment, body temperature was maintained at 37° C. with a warming pad. Burst pacing at cycle lengths of 100 to 50 ms was used to test for VT inducibility. A rhythm with more than 3 consecutive ventricular beats was considered to be VT.

c-Src = target: T1, c-Src (Mus musculus, UniProt P05480); test: Western blot of ventricular tissue, total c-Src; type: in vivo; conditions: four weeks i.p. treatment, corrected for GAPDH
T1 construct: The ventricular tissue was homogenized in a buffer; from tissue; host or cells: mouse ventricular tissue (wild-type and ACE8/8 mice)
Description: as §1
(§2) The mice were killed, and their hearts were excised. The ventricular tissue was homogenized in a buffer containing 20 mM of tris-(hydroxymethyl)-aminomethane (Tris-C1) (pH, 7.4), 150 mM of sodium chloride (NaCl), 2.5 mM of ethylenediamine tetraacetic acid (EDTA), 1% Triton-100, 10 μL/mL of phenylmethylsulfonyl fluoride (PMSF), 10 μL/mL of protein inhibitor cocktail (Pierce, Rockford, Ill.), and 10 μL/mL of phosphatase inhibitor cocktail II (Sigma-Aldrich, St. Louis, Mo.). Protein samples (5 to 20 μg) were separated via 10% sodium dodecyl sulfate polyacrylamide gel electrophoresis (SDS-PAGE) and were transferred to nitrocellulose membranes. […] The radiographic film images were scanned and analyzed with NIH ImageJ software.

[3] = target: T2, phosphorylated (Tyr 416) c-Src (Mus musculus, UniProt P05480); test: Western blot of ventricular tissue, phospho-(Tyr416) c-Src; type: in vivo; conditions: four weeks i.p. treatment, corrected for GAPDH
T2 construct: The ventricular tissue was homogenized in a buffer; from tissue; host or cells: mouse ventricular tissue (wild-type and ACE8/8 mice)
Description: as §1, §2

Cx43 [4] = test: Western blot of ventricular tissue, Cx43; type: in vivo, mouse
Description: as §1
The mice were killed, and their hearts were excised. The ventricular tissue was homogenized in a buffer containing 20 mM of tris-(hydroxymethyl)-aminomethane (Tris-C1) (pH, 7.4), 150 mM of sodium chloride (NaCl), 2.5 mM of ethylenediamine tetraacetic acid (EDTA), 1% Triton-100, 10 μL/mL of phenylmethylsulfonyl fluoride (PMSF), 10 μL/mL of protein inhibitor cocktail (Pierce, Rockford, Ill.), and 10 μL/mL of phosphatase inhibitor cocktail II (Sigma-Aldrich, St. Louis, Mo.). Protein samples (5 to 20 μg) were separated via 10% sodium dodecyl sulfate polyacrylamide gel electrophoresis (SDS-PAGE) and were transferred to nitrocellulose membranes. The membranes were blotted with the primary antibodies against c-Src, phosphorylated (Tyr 416) c-Src, and Cx43 (Cell Signaling, Danvers, Mass.). For a loading control, the membranes were blotted with a primary antibody against glyceraldehyde-3-phosphate dehydrogenase (GAPDH; Santa Cruz Biotech, Santa Cruz, Calif.). After treatment with secondary antirabbit or antimouse antibodies, imaging was performed with enhanced chemiluminescence. The radiographic film images were scanned and analyzed with NIH ImageJ software.

Cx43 [5] = test: Immunohistochemistry (immunostaining) for Cx43 in mouse hearts; type: in vivo
Description: as §1
The mouse hearts were fixed in 10% formalin, after which 8-μm thick sections were blocked for 1 hour at room temperature and were then incubated with anti-Cx43 antibodies overnight at 4° C. at concentrations known to provide the best signal-to-noise ratio. The slides were reviewed with a Zeiss Axioskop microscope (Carl Zeiss, Inc, Thornwood, N.Y.), and photomicrographs with original magnification×40 were taken from the apex, the mid-left ventricle (LV), and the LV base. From each of those sites, photomicrographs were taken from the endocardium and epicardium. The Cx43 content was quantified with the use of a grid that divided the field of view into 200 squares. At the intersection points aligning with the intercalated disks, Cx43 was scored as “1” (present) or “0” (absent). The results were expressed as the percentage occupied by Cx43 in the total area examined, excluding pseudospaces. This method has been used previously to quantify levels of collagen and Cx43 in cardiac tissue (24; 25).

gap junctions = test: Functional assessment of Cx43: Lucifer yellow dye spread in intact heart muscle; type: in vivo, mouse; conditions: hearts of treated ACE8/8 mice
Description: as §1
We used an established technique for measuring Cx43 function that involves fluorescent dye introduction and diffusion in intact heart muscle (26). Fresh hearts were obtained from wild-type, ACE8/8, ACE8/8 PP1-treated, and ACE8/8 PP3-treated mice. A sample from each heart was placed in phosphate buffered saline at 37° C., the anterior surface of the LV was punctured with a 27-gauge needle, and the sample was incubated with a droplet of 0.5% Lucifer yellow (LY) and a droplet of 0.5% Texas Red Dextran (TRD) in 150 mM of LiCl solution. […] Dye spread in longitudinal and transverse directions was assessed.

T1 sequence (P05480 whole entry): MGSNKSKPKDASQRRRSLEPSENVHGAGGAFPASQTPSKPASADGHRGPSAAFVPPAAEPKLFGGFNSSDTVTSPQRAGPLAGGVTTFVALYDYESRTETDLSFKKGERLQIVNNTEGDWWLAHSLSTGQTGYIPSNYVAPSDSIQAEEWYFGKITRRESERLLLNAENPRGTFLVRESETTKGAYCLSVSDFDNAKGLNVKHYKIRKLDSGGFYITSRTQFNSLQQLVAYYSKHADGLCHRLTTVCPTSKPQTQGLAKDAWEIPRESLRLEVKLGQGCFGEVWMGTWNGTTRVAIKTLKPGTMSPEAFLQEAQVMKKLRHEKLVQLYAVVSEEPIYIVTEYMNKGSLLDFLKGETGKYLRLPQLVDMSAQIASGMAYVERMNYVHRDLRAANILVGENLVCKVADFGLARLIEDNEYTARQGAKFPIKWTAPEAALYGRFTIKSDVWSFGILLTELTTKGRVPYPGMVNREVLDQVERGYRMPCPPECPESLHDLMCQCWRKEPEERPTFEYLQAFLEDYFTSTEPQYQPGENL
T2 sequence (P05480 whole entry): as above

| Compound | mean survival time (ACE8/8 mice [1]) | death in treated wild-type mice (wild-type mice; WT mice receiving PP1 1.5 mg/kg i.p. twice weekly for 4 weeks) | adverse reaction in treated wild-type mice (wild-type mice; wild-type mice, PP1 1.5 mg/kg i.p. twice weekly for 4 weeks) | VT inducibility rate (ACE8/8 mice [2]) | total c-Src protein level, relative to untreated ACE8/8 mice (c-Src) | phospho-(Tyr416) c-Src protein level, relative to untreated ACE8/8 mice [3] | increase in Cx43 protein level vs untreated ACE8/8 mice (Western blot) (Cx43 [4]; ACE8/8 mice, four weeks i.p. treatment) | Cx43 level relative to normal level in wild-type mice (Western blot) (Cx43 [4]; treated ACE8/8 mice, untreated ACE8/8 36%) | increase in Cx43 level/content in ACE8/8 mouse hearts (immunostaining) (Cx43 [5]; vs untreated ACE8/8 mice) | overall Lucifer yellow dye spread (gap junctions; untreated ACE8/8 0.14±0.01 mm, WT 0.21±0.02 mm) | effect on total Cx43 protein level (Western blot), in words (Cx43 [4]; ACE8/8 mice vs untreated ACE8/8) | Cx43 level, ratio of stained area for Cx43 to total field of view (Cx43 [5]; treated ACE8/8 mice, untreated ACE8/8 5.4±0.7%, wild-type 18.3±0.6%) | effect on Cx43 level at the gap junctions (immunostaining), in words (Cx43 [5]; vs untreated ACE8/8 mice) | effect on dye diffusion, in words (gap junctions) |
| --- | --- | --- | --- | --- | --- | --- | --- | --- | --- | --- | --- | --- | --- | --- |
| Cc1ccc(-c2nn(C(C)(C)C)c3ncnc(N)c23)cc1 [PP1, 1-(1,1-dimethylethyl)-1-(4-methylphenyl)-1H-pyrazolo[3,4-d]pyrimidin-4-amine] | 24.7 ± 0.2 days | No death happened | not associated with any adverse reaction | 50% | 58% | 75% | 2.1 fold | 68% | 2 fold and 2.0 fold | 0.20±0.02 mm and 0.21±0.02 mm |  |  |  |  |
| Nc1ncnc2c1cnn2-c1ccccc1 [PP3, 1-phenyl-1H-pyrazolo[3,4-d]pyrimidin-4-amine] | 11.2 ± 1.2 days |  |  |  |  |  |  |  |  |  | did not increase | 6.5+/−1% | did not increase | no statistically significant effect |
